According to the CheMixHub viscosity set:

Experiment: xn = mol fraction of the nth substance listed

CCCCCCCCCCCCCC[P+](CCCCCC)(CCCCCC)CCCCCC.N#C[N-]C#N + O
Details	viscosity [mPa·s]
303.11 K, 101 kPa, x2 = 0.198	284.5

CCCCCO + O
viscosity [mPa·s], 101 kPa
Details	298.15 K	308.15 K	318.15 K
x2 = 0.0288	3.509	2.654	–
x2 = 0.029	–	–	2.055
x2 = 0.0453	3.487	2.638	–
x2 = 0.066	3.468	2.62	–
x2 = 0.0685	–	–	2.026
x2 = 0.0859	3.451	2.606	–
x2 = 0.0914	–	–	2.016
x2 = 0.1012	–	–	2.006
x2 = 0.113	3.437	2.591	–
x2 = 0.1301	3.431	2.585	1.997
x2 = 0.1472	3.429	2.579	–
x2 = 0.149	–	–	1.991
x2 = 0.1655	–	2.577	–
x2 = 0.1689	3.424	–	1.985
x2 = 0.1776	3.426	2.576	–
x2 = 0.2023	–	–	1.98
x2 = 0.216	3.428	2.572	–
x2 = 0.2419	3.438	2.575	1.979

COCC(C)O (stereo unspecified) + O
viscosity [mPa·s], 101.33 kPa
Details	298.15 K	308.15 K	318.15 K
x1 = 0.0222	1.29	1	0.8257
x1 = 0.0396	1.651	1.236	0.98
x1 = 0.1131	3.035	2.119	1.579
x1 = 0.1959	3.731	2.615	1.925
x1 = 0.301	3.864	2.73	2.015
x1 = 0.3583	3.811	2.663	1.978
x1 = 0.4651	3.515	2.438	1.841
x1 = 0.5264	3.124	2.3	1.744
x1 = 0.7332	2.414	1.823	1.42
x1 = 0.8372	2.094	1.61	1.277
x1 = 0.9035	1.929	1.49	1.189

[Li+].[OH-] + O
viscosity [mPa·s], 101 kPa
Details	x1 = 0.0089	x1 = 0.02284	x1 = 0.0263	x1 = 0.0385	x1 = 0.0513	x1 = 0.075	x1 = 0.0776	x1 = 0.08062
298.15 K	–	1.245	–	1.602	–	–	–	3.29
308.15 K	–	0.996	–	1.261	–	–	–	2.467
323.15 K	0.609	0.748	0.778	0.931	1.114	1.596	1.66	1.743

C=C(C)C(=O)O + O=C1CCCCC1
viscosity [mPa·s], 101 kPa
Details	x2 = 0.1	x2 = 0.2	x2 = 0.3	x2 = 0.4	x2 = 0.5	x2 = 0.5999	x2 = 0.7	x2 = 0.8	x2 = 0.9
298.15 K	1.369	1.528	1.659	1.809	1.901	1.949	1.999	2.045	2.037
308.15 K	1.159	1.281	1.389	1.508	1.583	1.616	1.651	1.683	1.684
318.15 K	0.999	1.101	1.183	1.275	1.33	1.359	1.395	1.424	1.422

O=[N+]([O-])c1ccccc1 + O=C1CCCCC1
Details	viscosity [mPa·s]
298.15 K, 101.3 kPa, x2 = 0.1946	1.785

CCOCCOCCO + O=C1CCCN1
298.15 K, 101 kPa
Details	viscosity [mPa·s]
x1 = 0.0021	14.17
x1 = 0.004	14.1
x1 = 0.0086	14
x1 = 0.0117	13.9
x1 = 0.0212	13.57
x1 = 0.0348	13.2
x1 = 0.0525	12.63
x1 = 0.0788	12.03
x1 = 0.108	11.37
x1 = 0.1478	10.61
x1 = 0.1914	9.859
x1 = 0.2318	9.217
x1 = 0.2798	8.602
x1 = 0.3222	8.116
x1 = 0.3673	7.637
x1 = 0.4326	7.009
x1 = 0.4635	6.788
x1 = 0.5199	6.331
x1 = 0.5639	6.038
x1 = 0.6088	5.76
x1 = 0.6756	5.37
x1 = 0.7363	5.074
x1 = 0.7879	4.842
x1 = 0.8388	4.665
x1 = 0.8795	4.494
x1 = 0.9249	4.308
x1 = 0.9572	4.175
x1 = 0.977	4.003
x2 = 0.0069	3.885

ClC(Cl)=C(Cl)Cl + O=[N+]([O-])c1ccccc1
303.15 K, 101 kPa
Details	viscosity [mPa·s]
x1 = 0.1516	1.446
x1 = 0.2128	1.376
x1 = 0.2966	1.288
x1 = 0.3642	1.221
x1 = 0.4582	1.144
x1 = 0.5496	1.074
x1 = 0.6451	1.012
x1 = 0.7624	0.941
x1 = 0.8428	0.896
x1 = 0.9206	0.856
